These results are taken from patent US11571480B2, “Multi-ligand drug conjugates and uses thereof” (priority 2015, dated 2023).

As usually defined, the IC50 is the concentration that inhibits the measured activity by half.

Type in all cases: cell-based
In data set [1] the test system is receptor positive cell lines. Description: Cytotoxicity test of conjugate LDC10BR, comparison over cell lines. On the procedure:
(§1) Culture medium: RPMI 1640 Medium, no folic acid
(§2) 1) human nasopharyngeal cancer cell line KB, melanoma cell line A375, and human lung cancer cell H460 were incubated at 37° C., 5% CO2 in RPMI 1640 medium containing 10% fetal bovine serum, the cells were passaged every 2-3 days.
(§3) 2) human nasopharyngeal cancer cell line KB, melanoma cell line A375, and human lung cancer cell H460 were plated at 1×10^3 cells per well (96-well plate) and incubated for 8-12 h at 37° C., 5% CO2.
(§4) 3) Stock solutions of LDC conjugates or control were prepared in PBS solution. 100 μL/well of serially diluted LDC conjugates or control was added to the cells in the plate and incubated for 15-30 min at 37° C., 5% CO2. The culture medium in the wells was then removed by aspiration and the cells were incubated in fresh culture medium without conjugates (150 μL/well) for 2-3 days at 37° C., 5% CO2.
(§5) 4) CellTiter 96® Aqueous One Solution Cell Proliferation Assay (Promega) was added to each well to measure the amount of […] cells, and the plate was incubated in an incubator for 1 h at 37° C., 5% CO2.
(§6) 5) the plate was read at 490 nm on a microplate reader, and the cell survivals were compared for cells with or without the treatment of LDC conjugates. The LDC drug concentrations that are required for 50% cell death (IC50 values) were determined.

Data set [2] concerns human lung cancer cell H460. Description: Cytotoxicity test of conjugate LDC10BR. The settings on record: H460, incubated 15-30 min, then 2-3 days. On the procedure:
as §1, §2, §3, §4, §5, §6

In data set [3] the test system is human nasopharyngeal cancer cell line KB. Description: Cytotoxicity test of conjugate LDC10BR. Particulars: incubated 15-30 min, then 2-3 days. As to the method:
as §1, §2, §3, §4, §5, §6

The next data set relates to melanoma cell line A375. Put plainly: Cytotoxicity test of conjugate LDC10BR. Particulars: A375, incubated 15-30 min, then 2-3 days. On the procedure:
as §1, §2, §3, §4, §5, §6

The structures appear in SMILES notation. Numbered stars: 1 amine (or outer) side, 2 acyl side, 3 side chain; on linkers, the order of the positions; unused ones are H or OH. Bridge positions count the residues as written; N and C are the ends. Square brackets hold non-standard residues; d marks the D form. Peptide text beside a SMILES is read from it. I, II: the chains in the order shown. * marks the point of attachment. Hexanoyl(6-succinimido-3yl) = O=C1CC([*:1])C(=O)N1CCCCCC(=O)[*:2]; Pteroyl = Nc1nc2ncc(CNc3ccc(C(=O)*)cc3)nc2c(=O)[nH]1; Dolaproine = CO[C@@H]([C@@H]1CCCN1)[C@@H](C)C(=O)O; Dil = CC[C@H](C)[C@H](NC)[C@@H](CC(=O)O)OC; PABC = O=C(OCc1ccc(N[*:1])cc1)[*:2]; X1 = C[C@@H](N*)[C@@H](O)c1ccccc1; Cit = NC(=O)NCCC[C@H](N)C(=O)O; NMeV = CN[C@H](C(=O)O)C(C)C

As for `CC[C@H](C)[C@@H]([C@@H](CC(=O)N1CCC[C@H]1[C@H](OC)[C@@H](C)C(=O)N[C@H](C)[C@@H](O)c1ccccc1)OC)N(C)C(=O)[C@@H](NC(=O)[C@H](C(C)C)N(C)C(=O)OCc1ccc(NC(=O)[C@H](CCCNC(N)=O)NC(=O)[C@@H](NC(=O)CCCCCN2C(=O)CC(SC[C@H](NC(=O)[C@H](CC(=O)O)NC(=O)CNC(=O)[C@H](CCCNC(=N)N)NC(=O)[C@H](CCC(=O)O)NC(=O)c3ccc(NCc4cnc5[nH]c(N)nc(=O)c5n4)cc3)C(=O)N[C@@H](CCCCN)C(=O)N[C@@H](CCC(=O)O)C(=O)N[C@@H](Cc3ccccc3)C(=O)N[C@@H](CC(C)C)C(=O)N[C@@H](Cc3c[nH]cn3)C(=O)N3CCC[C@H]3C(=O)N[C@@H](CO)C(=O)N[C@@H](CCCCN)C(=O)N[C@H](C(=O)N[C@@H](CC(=O)O)C(=O)N[C@@H](CC(C)C)C(=O)N3CCC[C@H]3C(=O)N[C@@H](CCCNC(=N)N)C(=O)O)C(C)C)C2=O)C(C)C)cc1)C(C)C` (stereo partly shown) [LDC10BR] (I: Pteroyl-ERGDCKEFLHPSKVDLPR-OH / II: V[Cit][PABC][NMeV]V[Dil][Dolaproine]-X1; linker I:5-II:N via Hexanoyl(6-succinimido-3yl)), the “cytotoxicity compared with bi-ligand conjugate LDC10B (in words)” value in data set [1] is “comparable to the bi-ligand conjugate LDC10B”. The values for the IC50 (in data set [2]; in data set [3]; in the data set on melanoma cell line A375) were 6.4 µM, 6.6 µM and 38.1 µM, respectively.
